{"source": "patent US20180221438A1", "about": "“MODULATING URACIL-DNA GLYCOSYLASE AND USES THEREOF” (Adaerata Limited Partnership, priority 2015, published 2018)", "type_in_all_cases": "cell-based", "key": {"[1]": {"test_system": "B cells from wt or UNG−/− mice", "assay": "B cell expansion by cell count after DidB treatment", "details": "cells counted 48 h post-treatment, LPS and IL-4", "protocol": "(§1) B cells were purified from wt or UNG−/− mice, and cultured directly with LPS and IL-4 and were counted 48 h post-treatment in order to measure B cell expansion (FIG. 14B); or after loading with the CFSE dye and cell divisions for treated cells were measured by analyzing the dilution of CFSE dye at 24 h post-treatment. Dilution of CFSE in cells is proportional to proliferation (FIGS. 14C-D).\n(§2) 24 h later, cells were treated with either DMSO or DidB."}, "[2]": {"test_system": "Primary B cells from AID UNG double deficient mice", "details": "1 nM DidB, 72 h, AID-ires-GFP vs GFP alone or AIDE58A", "protocol": "Primary B cells were harvested from AID UNG double deficient mice and cultured with anti-CD180, IL-4 and LPS. […] 24 h post infection, cells were treated with either DMSO vehicle or 1 nM of the EEF1A inhibitor DidB. Toxicity was measured after 72 h as the % difference of GFP+ cells in the DidB-treated culture compared to DMSO control. Data from two mice are averaged, bars are SEM."}, "[3]": {"test_system": "B cells from wt or UNG−/− mice", "assay": "B cell divisions by CFSE dilution after DidB treatment", "details": "Ung-deficient vs wt B cells", "protocol": "as §1, §2"}}, "data": [{"smiles": "CC[C@H](C)[C@H]1NC(=O)[C@@H](NC(=O)[C@@H](CC(C)C)N(C)C(=O)[C@@H]2CCCN2C(=O)C(C)O)[C@@H](C)OC(=O)[C@H](Cc2ccc(OC)cc2)N(C)C(=O)[C@@H]2CCCN2C(=O)[C@H](CC(C)C)NC(=O)[C@@H](C)C(=O)[C@H](C(C)C)OC(=O)C[C@@H]1O", "note": "(stereo partly shown) [DidB, didemnin B]", "values": [{"measurement": "B cell expansion", "setting": "[1]", "result": "further diminishes expansion in Ung-deficient B cells"}, {"measurement": "sensitivity to DidB (toxicity, % difference of GFP+ cells vs DMSO)", "setting": "[2]", "result": "substantially more sensitive"}, {"measurement": "sensitivity to DidB treatment (cell divisions, CFSE)", "setting": "[3]; 24 h post-treatment", "result": "more sentitive"}, {"measurement": "inhibition of proliferation", "setting": "[3]; dose-dependent, CFSE dilution 24 h post-treatment", "result": "more marked in Ung-deficient B cells than wt B cells"}]}]}
